In one series the target is MNK2 (h) protein kinase (Homo sapiens (Human), UniProt Q9HBH9). The experiment in a line: Inhibitory activity against MNK2 protein kinase (KinaseProfiler, 33P-ATP filter-binding). The format is biochemical. Particulars: myelin basic protein substrate, 40 min room temperature. On the procedure: 1. In Vitro Evaluation of Inhibitory Activity of Compounds Disclosed Herein Against MNK2 Protein Kinase
Purpose of experiment: to test the inhibitory activity of the compounds against MNK2 protein kinase
Experimental materials: assay buffer: 8 mM 3-(N-morpholino)propanesulfonic acid, 0.2 mM disodium ethylenediaminetetraacetate, 0.01% polyoxyethylene lauryl ether, 5% glycerol, 0.1% β-mercaptoethanol and 1 mg of bovine serum albumin
Experimental operation: Mnk2 protein kinase inhibitory activity assays were performed using the KinaseProfiler™ service from Eurofins Pharma Discovery Services UK Limited. Serially diluted DMSO solutions containing the compounds to be tested (3-fold serial dilution, starting from 10 μM), MNK2 (h) protein kinase and 0.33 mg/mL myelin basic protein were added to a freshly prepared buffer (pH 7.0), and then stirred homogeneously. The reaction was initiated by adding a mixture of ^33P-ATP (intensity of radioactivity: 10 μCi/μL) and 10 mM magnesium acetate. After the resulting mixture was reacted at room temperature for 40 min, the reaction was terminated by adding phosphoric acid to dilute to a concentration of 0.5%. 10 μL of the reaction solution was filtered using a P30 filtermat, and then the filtermat was washed four times with 0.425% phosphoric acid for 4 min each, followed by washing once with methanol. After drying, the intensity of radioactivity was determined using the Filter-Binding method.
The protein kinase inhibitory activity of the compounds was expressed as a percentage of the residual protein kinase activity relative to the blank substrate (DMSO alone). The Prism4 software package (GraphPad) was used to calculate IC50 values and fit curves.

The target of another series is MNK1 (h) protein kinase (Homo sapiens (Human), UniProt Q9BUB5). The experiment in a line: Inhibitory activity against MNK1 protein kinase (Kinase HotSpot Profiling, 33P-ATP). Format: biochemical. To be noted: 120 min room temperature. The procedure:
2. In Vitro Evaluation of Inhibitory Activity of Compound Disclosed Herein Against MNK1 Protein Kinase
Purpose of experiment: to test the inhibitory activity of the compound against MNK1 protein kinase
Experimental materials: assay buffer: 20 mM 4-hydroxyethylpiperazine ethanesulfonic acid (pH 7.5), 10 mM magnesium chloride, 1 mM ethylene glycol-bis-(2-aminoethylether)-N,N,N′,N′-tetraacetic acid, 0.02% polyoxyethylene lauryl ether, 0.02 mg/mL bovine serum albumin, 0.1 mM sodium vanadate, 2 mM dithiothreitol, and 1% DMSO.
Experimental operation: Mnk1 protein kinase inhibitory activity assays were performed using the Kinase HotSpot Profiling service from Reaction Biology Corp. The substrate was added to a freshly prepared buffer, followed by addition of MNK1 (h). The mixture was stirred homogeneously. Serially diluted DMSO solution containing the compounds to be tested (3-fold serial dilution, starting from 3 μM) was added by using Echo550, and then ^33P-ATP (final intensity of radioactivity: 0.01 μCi/μl) was added to initiate the reaction. The mixture was pre-incubated at room temperature for 120 min. […] The concentration of the radioactive phosphorylated substrate remaining on the filter paper was measured.
The protein kinase inhibitory activity of the compound was expressed as a percentage of the residual protein kinase activity relative to the blank substrate (DMSO alone). […]

Series [1] deals with eIF4E phosphorylation of HCT116 cell strain. Briefly: Inhibition of eIF4E phosphorylation in HCT116 cell strain (AlphaLISA p-eIF4E Ser209). The format is cell-based. To be noted: Homo sapiens, HCT-116; HCT116 cells, 3 h incubation. The text has this: 3. In Vitro Evaluation of Inhibitory Activity of Compounds Disclosed Herein Against eIF4E Phosphorylation Purpose of experiment: to test the inhibition (IC50) of the compounds against eIF4E phosphorylation of HCT116 cell strain. Experimental materials: HCT116 cells (ATCC), RPM11640 medium (Life technology), fetal bovine serum (Hyclone), double antibodies (penicillin, streptomycin) (Millipore), phosphate buffer (Corning), 384-well cell plate (PerkinElmer), and AlphaLISA® SureFire® Ultra™ p-eIF4E (Ser209) Assay Kit (PerkinElmer). Experimental operation: HCT116 cells were digested to make a cell suspension, which was then plated in a 96-well plate. The cell plate was then placed in an incubator for overnight incubation. Compounds were diluted to corresponding concentrations and added to the cell plate, and the resulting mixture was incubated for 3 h. The cells were subsequently lysed with a lysis buffer, and the lysate was transferred to a 384-well plate. A mixed receptor was freshly prepared according to the kit instructions and added to the 384-well plate, and the mixture was incubated at room temperature for 1 h. Then a mixed donor was freshly prepared according to the kit instructions and added to the 384-well plate, and the resulting mixture was incubated at room temperature for 1 h. The signals were read on EnVision using the standard AlphaLISA program, curves were fitted using Graphpad prism, and the IC50 values were calculated.

The nature of series [2]: Pharmacokinetic evaluation in mice. The format is in vivo, CD-1 mice. Particulars: male, CD-1, mouse, plasma. The procedure: 4. Pharmacokinetic Evaluation of Compounds Disclosed Herein
Purpose of experiment: to test pharmacokinetic parameters of the compounds in CD-1 mice
Experimental materials: CD-1 mice (Male, 7-9 weeks age, Shanghai Sippe-Bk Lab Animal Co., Ltd.)
Experimental operation: pharmacokinetic characteristics of the compounds after intravenous injection and oral administration for the rodent were tested by a standard scheme, and the candidate compounds were each formulated into a clear solution or a uniform suspension in the experiments and intravenously administered and intragastrically administered once to a mouse. The vehicle for the intravenous injection and oral administration was […] hydroxypropyl-β-cyclodextrin aqueous solution or normal saline solution. […] Two mice were subjected to intravenous injection at a dose of 0.5 mg/kg, and plasma samples were collected at 0 h (before administration) and 0.083, 0.25, 0.5, 1, 2, 4, 8, 12 and 24 h (after administration); the other two mice were subjected to intragastric administration at a dose of 2 mg/kg, and plasma samples were collected at 0 h (before administration) and 0.25, 0.5, 1, 2, 4, 8, 12 and 24 h (after administration). Whole blood samples within 24 h were collected and each centrifuged at 3000 g for 10 min. The supernatant was separated to obtain plasma sample, and acetonitrile solution containing internal standard whose volume is […] that of the plasma sample was added to precipitate the protein. The mixture was vortexed at 800 rpm for 10 min, and then 1 μL of supernatant was taken for injection. Plasma concentrations were quantitatively analyzed by LC-MS/MS method, and pharmacokinetic parameters, such as peak concentration (Cmax), clearance (CL), half-life (T1/2), tissue distribution (Vdss), area under the plasma drug concentration-time curve (AUC0-last) and bioavailability (F), were calculated.

Each structure is given as a SMILES string. Structures can show the parent of a compound that is named as a salt.

The values that follow come from patent US12492215B2, “Pyrrolotriazine compounds acting as MNK inhibitor” (JUMBO DRUG BANK CO., LTD., priority 2019, dated 2025).

MNK1 (h) protein kinase, sequence (Q9BUB5 whole entry): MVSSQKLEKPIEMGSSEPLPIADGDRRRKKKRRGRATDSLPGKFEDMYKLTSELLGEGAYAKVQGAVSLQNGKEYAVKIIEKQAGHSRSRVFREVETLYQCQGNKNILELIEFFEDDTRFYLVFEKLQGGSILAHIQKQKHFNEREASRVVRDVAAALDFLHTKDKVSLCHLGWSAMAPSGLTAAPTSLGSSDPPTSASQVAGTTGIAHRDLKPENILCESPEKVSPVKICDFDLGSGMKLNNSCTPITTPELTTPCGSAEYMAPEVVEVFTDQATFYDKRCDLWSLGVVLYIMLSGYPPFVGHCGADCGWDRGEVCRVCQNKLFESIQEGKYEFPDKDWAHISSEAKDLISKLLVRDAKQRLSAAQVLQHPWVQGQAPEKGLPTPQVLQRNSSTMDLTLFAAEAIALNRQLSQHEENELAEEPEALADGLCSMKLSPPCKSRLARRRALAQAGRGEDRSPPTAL
MNK2 (h) protein kinase, sequence (Q9HBH9 whole entry): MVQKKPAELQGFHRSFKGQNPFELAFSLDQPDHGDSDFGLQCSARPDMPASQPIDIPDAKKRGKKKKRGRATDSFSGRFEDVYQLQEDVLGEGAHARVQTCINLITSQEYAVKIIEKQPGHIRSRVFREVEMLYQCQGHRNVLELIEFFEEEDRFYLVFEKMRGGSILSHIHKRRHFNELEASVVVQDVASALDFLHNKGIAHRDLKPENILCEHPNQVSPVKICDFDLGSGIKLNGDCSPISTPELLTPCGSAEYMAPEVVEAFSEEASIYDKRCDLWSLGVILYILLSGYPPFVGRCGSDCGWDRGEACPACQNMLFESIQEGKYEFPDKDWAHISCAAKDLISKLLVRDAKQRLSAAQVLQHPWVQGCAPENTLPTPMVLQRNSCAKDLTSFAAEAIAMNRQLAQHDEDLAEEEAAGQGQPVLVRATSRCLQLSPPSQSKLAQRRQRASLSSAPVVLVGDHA

With `Cc1cc(Nc2ncnn3cc(OCCN4CCCC4)c(C)c23)c(=O)n2c1C(=O)NC21CCCCC1` [Compound 1 (hydrochloride)], the half-maximal inhibitory concentration (IC50) at MNK2 (h) protein kinase was 22 nM; against MNK1 (h) protein kinase, 54.6 nM; in series [1], 3.46 nM. Moreover, in series [2] (PO 2 mg/kg vs IV 0.5 mg/kg, read-out: Bioavailability F), the bioavailability stood at 32.5%. Also, the AUC(0-t) in series [2] (PO 2 mg/kg, read-out: Area under the plasma drug concentration-time curve AUC0-last PO) was 0.956 µM·h. Further, the Cmax in series [2] (intragastric 2 mg/kg, intravenous 0.5 mg/kg (route of Cmax not given), read-out: Peak concentration Cmax) worked out at 35.9 nM. Besides, the clearance in series [2] (intravenous injection 0.5 mg/kg, read-out: Clearance CL) worked out at 33.3 mL/min/kg. For the same molecule, in series [2] (intravenous injection 0.5 mg/kg, read-out: Tissue distribution Vdss), the Vd is 14.1 L/kg.

One may read the IC50 as the point on the concentration scale where inhibition reaches its midpoint. High values mean weaker potency in that assay, low ones greater potency in that assay. For orientation: bioavailability means the share of a dose that reaches the circulation, judged against a reference dose that is usually intravenous. As a reminder, the clearance is a measure of how efficiently the substance is removed, as volume per time.
